These results are taken from PMC5620576 (Pharmaceutics, 2017).

Broadly, the AUC(0-inf) is total exposure, with the tail of the curve extrapolated. Higher therefore signals high exposure. Usually AUC(0-t) stands for the area under the concentration-time curve up to a stated or last time point. Broadly, the clearance is a measure of how efficiently the substance is removed, as volume per time. The low end stands for inefficient removal, the high end for efficient removal. As a reminder, the half-life is the time in which the quantity being followed falls by half. A lower half-life goes with fast loss. What is called Vd is the apparent volume that relates the amount in the body to the concentration in plasma or blood. The term bioavailability denotes the share of a dose that reaches the circulation, judged against a reference dose that is usually intravenous. Low readings indicate poor availability, high ones good availability. In general, Vss refers to the apparent volume that relates the amount in the body to the concentration in plasma or blood. Low values mean confinement near the circulation, high ones extensive tissue distribution.

SMILES strings stand for the structures. “And” between values parts separate entries of the source, which are not always exact repeats. Identical values can stand only once. “Also recorded” adds a separate entry of the source.

In data set [1] the test system is rat cardiac Troponin-I (cTnI). In words: Cardiac toxicity, serum cardiac Troponin-I (cTnI) ELISA after single IV dose. The format is in vivo. Conditions: for cTnI concentrations in serum: 12, 24 and 48 h after single IV 10 mg/kg Dox or equimolar DoxQ. As to the method: Samples were centrifuged to obtain the serum and stored at −20 °C in a freezer until analysis. On the day of the analysis, cTnI concentrations were measured in serum samples following the manufacturer’s instructions. The area under the effect curve (AUEC) was calculated for cTnI concentrations at 12–48 h post-dosing using the trapezoidal rule by WinNonlin® software.

A short description of data set [2]: Pharmacokinetic study after IV administration, rat serum and urine. Particulars: for fe, fraction excreted unchanged in urine: administered compound intact in urine; for CLhepatic: n = 3, CLtot minus CLrenal.
Data set [3] can be described thus: Renal toxicity, urinary output over 24 h after single IV dose. The format is in vivo, rat. Conditions: 24 h after single IV 10 mg/kg Dox or equimolar DoxQ. As to the method: The total urine volume excreted over 24 h post-dosing was compared to the total urine volume excreted over 24 h pre-dosing.
Data set [4] is described as follows: in vivo. Particulars: male, Sprague-Dawley, rat, serum, po, 10 mg/kg, F, Dox after PO Dox 10 mg/kg, n = 3.
Data set [5] concerns β-N-acetylglucosaminidase (NAG). In words: Renal toxicity, β-N-acetylglucosaminidase (NAG) in rat urine after single IV dose. Conditions: after single IV 10 mg/kg Dox or equimolar DoxQ. The data set is classed as in vivo. The procedure: Urine samples from pharmacokinetics experiments were collected from metabolic cages at 0 h, 12 h, 24 h, and 48 h and stored at −20 °C until analysis. Concentrations of NAG urine samples were measured using an assay kit from ALPCO Diagnostics (Salem, NH, USA, cat. No. 73-1290050) on a Medica EasyRA automated clinical chemistry analyzer (Medica Corporation, Bedford, MA, USA).

Details of data set [6]: method as in PMID 28462502. Particulars: in vitro; cited from earlier work.
Data set [7] can be described thus: Intestinal lymphatic delivery, mesenteric lymph duct cannulated rat model. The data set is classed as in vivo, male Sprague–Dawley rats. Particulars: over one hour after oral 10 mg/kg, n = 3. From the text:
The intestinal transport of DoxQ via lymphatics was examined in vivo by two methods.
Six male Sprague–Dawley rats (~300 g) were obtained from Charles River Labs (Montreal, QC, Canada) and given food (Purina Rat Chow 5001) and water ad libitum in the animal facility for at least three days before use. On the day of surgical operation, rats were anesthetized by isoflurane and the abdominal hair was shaved. Rats were maintained under inhaled anesthesia on a warm surgical table. A ~2.5 cm abdominal midline skin incision was made and extended through the musculature using blunt dissection beginning the incision at a point just above the xyphoid cartilage and proceeding distally. […] The lymph duct was isolated from the surrounding connective tissue and a small incision was made with a bent 23 G needle in the ventral wall of the lymph. A catheter was inserted through the incision and secured by placing a small cellulose patch with a drop of Vetbond^TM over the point of insertion into the lymph duct. When a gradual and continuous flow of lymph was observed, an initial lymph sample was collected into a normal microtube. […] Thereafter, lymph samples were collected over one hour after dosing. The animals were euthanized after the last lymph sample collection.

The subject of a further data set is rat cardiomyocytes. Details: method as in PMID 28462502. Conditions: cited from earlier work.
The test system of data set [8] is P–gp-positive (MDCK–MDR) cells. Details: method as in PMID 28462502. Conditions: cited from earlier work.
The test system of a further data set is CYP1B1. Details: method as in PMID 28462502. Conditions: expression and catalytic activity; cited from earlier work.
The nature of data set [9]: Predicted physicochemical properties (VCCLAB, MarvinSketch, GastroPlus). Conditions: predicted values. As to the method: LogP and LogS values of DoxQ were predicted using an online computer software (VCCLAB, Virtual Computational Chemistry Laboratory). pKa, logP, logD at pH 7.4, intrinsic solubility, and solubility at pH 7.4 were calculated using MarvinSketch v. […] 9.0.0007 (Simulations Plus, Inc., Lancaster, CA, USA). […] The melting point of DoxQ was experimentally determined by MEL-TEMPII melting point apparatus from Laboratory Devices (Holliston, MA, USA).

The nature of data set [10]: in vivo. Conditions: male, Sprague-Dawley, rat, iv, 10 mg/kg.
In data set [11] the test system is triple negative murine breast cancer cell line. Also on record: method as in PMID 28462502. Conditions: cited from earlier work.
The next data set relates to CYP3A4. Also on record: method as in PMID 28462502. Particulars: in vitro; cited from earlier work.
The next data set concerns human cardiomyocytes. Details: method as in PMID 28462502. Particulars: cited from earlier work.
The mark [12] stands for this setting: administered compound intact in rat serum, IV Dox 10 mg/kg or equimolar DoxQ, mean ± SEM.
[13] abbreviates: IV Dox 10 mg/kg or equimolar DoxQ.
The mark [14] stands for this setting: administered compound intact, IV Dox 10 mg/kg or equimolar DoxQ.
[15] abbreviates: male, Sprague-Dawley, rat, serum, iv, 10 mg/kg.

For `COc1cccc2c1C(=O)c1c(O)c3c(c(O)c1C2=O)C[C@@](O)(C(=O)CO)C[C@@H]3O[C@H]1C[C@H](N)[C@H](O)[C@H](C)O1` [Dox, Doxorubicin], in data set [1], the “cTnI concentrations in serum” value is “increase in cTnI”. For the same compound, the “F, bioavailability” value (Dox after PO Dox 10 mg/kg, n = 3) is recorded as 8.57 ± 0.71%. Also, in data set [2] (IV, equimolar doses), the “Vss of Dox relative to Vss of DoxQ” value is given as ~ 80 fold. Besides, in [2] (setting [12]), the C0 came out at 24.7 ± 14.2 µg/mL and the Clast came out at 0.12 ± 0.03 µg/mL. Also, the “fe, fraction excreted unchanged in urine” value in [2] (setting [13]) is ~ 11% and 10.73 ± 3.14%. This compound also came in with a CLhepatic in data set [2] (setting [14]) of 2.35 ± 0.36 L/h/kg. In [2] (setting [15]), this compound gave an AUC(0-inf) of 4.79 ± 1.83 µg·h/mL, an exposure AUC(0-t) of 3.97 ± 0.7 µg·h/mL, a CL renal of 0.28 L/h/kg and a clearance of 2.63 L/h/kg. In data set [2] (setting [15]), this compound gave a half-life of 4.69 ± 0.8 h and a k el of 4.44e-05 s⁻¹. The compound further returned a C0 in data set [2] (male, Sprague-Dawley, rat, serum, iv, 10 mg/kg, C0, administered compound intact in rat serum, IV Dox 10 mg/kg or equimolar DoxQ, mean ± SEM) of roughly 25 µg/mL. In data set [2] (male, Sprague-Dawley, rat, serum, iv, 10 mg/kg, Vss, administered compound intact, IV Dox 10 mg/kg or equimolar DoxQ, mean ± SEM), this compound registered a Vd of 6.35 ± 2.11 L/kg. For the same compound, in data set [3], the “Total urine volume over 24 h” value is “no significant difference”. In the data set “in vivo [4]”, this compound displayed a bioavailability of roughly 8.5%. For the same compound, the “Cumulative amount of NAG excreted in urine” value in data set [5] was “higher cumulative amounts”.
As for `COc1cccc2c1C(=O)c1c(O)c3c(c(O)c1C2=O)CC(O)(C(=O)CO)CC3OC1CC(NC(=O)CNC(=O)Oc2ccc(-c3oc4cc(O)cc(O)c4c(=O)c3O)cc2O)C(O)C(C)O1` (centres unmarked) [DoxQ], the “Release of Dox and quercetin from DoxQ” value in data set [6] is “controlled release of both Dox and quercetin released from DoxQ over four days”. The “Cumulative amount of Dox in mesenteric lymph fluid, compared to after Dox” value in data set [7] is recorded as “twice as high; also recorded: two-fold higher”. Moreover, the “cTnI concentrations in serum” value in [1] (10 mg/kg) was “also had an increase in cTnI at each time point”. Moreover, the “AUEC of cTnI concentrations” value in data set [1] (12–48 h after single IV 10 mg/kg Dox or equimolar DoxQ) is reported as “lower than the AUEC after Dox”. For the same compound, in the data set with rat cardiomyocytes, the “Toxicity to cardiomyocytes compared to Dox” value is “less toxic; also recorded: less cardiotoxic than Dox”. Moreover, the “Intact DoxQ in serum after oral dosing” value (PO DoxQ) is on record as “not detected”. For the same compound, in [8], the “Cellular uptake compared to free Dox” value was “higher cellular uptake”. Moreover, the “Effect on CYP1B1” value with CYP1B1 was “inhibitory effects”. Further, in [2] (IV, equimolar doses), the “AUC of intact DoxQ relative to AUC of Dox after Dox” value is reported as 5 fold; the “C0 / serum concentration of intact DoxQ relative to Dox after Dox” value was 4–5 fold and 5 fold. Further, in data set [2] (setting [12]), the C0 was determined as 108 ± 26.4 µg/mL and the Clast amounted to 1.11 ± 0.17 µg/mL. In addition, the “fe, fraction excreted unchanged in urine” value in data set [2] (setting [13]) is ~ 5% and 4.32 ± 1.005%. In data set [2] (administered compound intact, IV Dox 10 mg/kg or equimolar DoxQ, mean ± SEM), the Vss is 0.08 ± 0.015 L/kg. The compound further returned a CLhepatic in [2] (setting [14]) of 0.51 ± 0.06 L/h/kg. Also, the “LogP of DoxQ relative to Dox” value in [9] is recorded as 3–5 fold. For the same compound, the “LogD7.4 of DoxQ relative to Dox” value in data set [9] (pH 7.4) was 25 fold. Besides, the “Total urine volume over 24 h” value in [3] is reported as “no significant difference”. In addition, in the data set “in vivo [10]”, the AUC(0-t) is 18.6 ± 1.98 µg·h/mL, the CL renal is 0.02 L/h/kg, the clearance is 0.53 L/h/kg and the half-life is 9.6 ± 18 min. In addition, the k el in the data set “in vivo [10]” was 0.00127 s⁻¹. Moreover, the C0 in “in vivo [10]” (C0, administered compound intact in rat serum, IV Dox 10 mg/kg or equimolar DoxQ, mean ± SEM) is roughly 108 µg/mL. For the same compound, the distribution volume (Vd) in “in vivo [10]” (Vss, administered compound intact, IV Dox 10 mg/kg or equimolar DoxQ, mean ± SEM) worked out at 0.138 ± 0.015 L/kg. For the same compound, the Anti-cancer activity entry in data set [11] is recorded as “retained anti-cancer activity”. For the same compound, the “Cumulative amount of NAG excreted in urine” value in data set [5] (10 mg/kg) is reported as “lower after IV DoxQ than Dox”. In the data set with CYP3A4, the “Inhibition of CYP3A4” value is listed as “inhibited”. The “Toxicity to cardiomyocytes compared to Dox” value in the data set on human cardiomyocytes is “less toxic; also recorded: less cardiotoxic than Dox”.
